Data taken from US20250171459A1, “2-METHYL-4',5'-DIHYDROSPIRO[PIPERIDINE-4,7'-THIENO[2,3-C]PYRAN] DERIVATIVES AS INHIBITORS OF APOL1 AND METHODS OF USING SAME” (Vertex Pharmaceuticals Incorporated, priority 2022, published 2025).

Each compound was assayed against T1, APOL1 (Homo sapiens, UniProt O14791) (assay: MultiTox-Fluor Multiplex Cytotoxicity Assay in tet-inducible APOL1 T-REx-HEK293 cells (cell rescue, ratio of dead to live cells)). Details: tet-inducible transgenic APOL1 T-REx-HEK293 cell lines, 50 ng/mL tet, 24 hours; read-out: IP50 (i.e., IC50 for cell proliferation).
T1 sequence (O14791 1-398 S342G/I384M): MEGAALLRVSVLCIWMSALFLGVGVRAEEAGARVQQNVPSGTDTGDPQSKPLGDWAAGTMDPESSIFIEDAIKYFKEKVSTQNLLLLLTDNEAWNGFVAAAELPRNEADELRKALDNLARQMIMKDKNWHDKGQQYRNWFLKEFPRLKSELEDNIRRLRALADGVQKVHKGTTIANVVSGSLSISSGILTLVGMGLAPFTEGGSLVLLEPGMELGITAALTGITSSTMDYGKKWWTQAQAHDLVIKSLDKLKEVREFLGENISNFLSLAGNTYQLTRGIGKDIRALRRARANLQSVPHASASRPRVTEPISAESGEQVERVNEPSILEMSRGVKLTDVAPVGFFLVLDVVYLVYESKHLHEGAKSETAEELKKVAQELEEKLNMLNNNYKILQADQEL
Format: cell-based
Method in brief: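 T-REx-HEK293 cells with tet-inducible APOL1 were treated with compound (10 μM top, 10-point 3-fold dilution, duplicate) plus 50 ng/mL tetracycline for 24 h at 37° C, in DMEM with 2% tet-free FBS. MultiTox-Fluor protease signals gave a dead/live ratio, normalized to no tet (100% viability) and tet alone (0%).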

Q: Which IC50 does the source give for C[C@H]1C[C@@]2(CCN1Cc1cnn(C)c1)OCC(O)c1sc(C(F)(F)F)cc12 (stereo partly drawn) [Compound 542, (2′S,4R)-2′-methyl-1′-[(1-methylpyrazol-4-yl)methyl]-2-(trifluoromethyl)spiro[6,7-dihydrothieno[3,2-c]pyran-4,4′-piperidine]-7-ol] here?
A: The IC50 was under 100 nM.

Q: How did the IC50 turn out when CCc1cc2c(s1)CCOC21CCN(Cc2cnc(Nc3cccnc3)nc2)CC1 [Compound 1074] was run?
A: The IC50 was under 100 nM.

Q: With CCc1cc2c(s1)[C@]1(CCN(Cc3cn(CCS(C)(=O)=O)nn3)[C@@H](C)C1)OCC2 [Compound 1036, (2′S, 7R)-2-ethyl-2′-methyl-1′-[[1-(2-methylsulfonylethyl)triazol-4-yl]methyl]spiro[4,5-dihydrothieno[2,3-c]pyran-7,4′-piperidine]] as the compound, how does the IC50 read?
A: The IC50 was under 100 nM.

Q: For CCc1cc2c(s1)CCO[C@@]21CCN(Cc2cn(CCS(=O)(=O)c3ccccc3)nn2)[C@@H](C)C1 [Compound 26], which IC50 is on record?
A: The IC50 was under 100 nM.

Q: With COCCc1ncc(CN2CC[C@]3(C[C@@H]2C)OC[C@H](O)c2cc(Cl)sc23)cn1 [Compound 797] as the compound, how does the IC50 read?
A: Its IC50 is 100 to 500 nM.

Q: For CCc1cc2c(s1)CCOC21CCN(CC2CN(C(=O)OC(C)(C)C)C2)CC1 [Compound 1149], which IC50 is on record?
A: Its IC50 is 500 to 1000 nM.

Q: How did the IC50 turn out when C[C@H]1C[C@@]2(CCN1Cc1cnn(CC3(O)CCS(=O)(=O)CC3)c1)OC[C@@H](O)c1cc(C(F)(F)F)sc12 [Compound 974] was run?
A: The IC50 was under 100 nM.

Q: How did the IC50 turn out when COCc1c(C(F)F)sc2c1CCO[C@@]21CCN(Cc2cnn(CCS(C)(=O)=O)c2)[C@@H](C)C1 [Compound 763, (2′S, 7R)-2-(difluoromethyl)-3-(methoxymethyl)-2′-methyl-1′-[[1-(2-methylsulfonylethyl)pyrazol-4-yl]methyl]spiro[4,5-dihydrothieno[2,3-c]pyran-7,4′-piperidine]] was run?
A: The IC50 was under 100 nM.

Q: With CCc1cc2c(s1)CCO[C@@]21CCN(C2COCC2O)[C@@H](C)C1 (stereo partly drawn) [Compound 233, 4-[(2′S,4R)-2-ethyl-2′-methyl-spiro[6,7-dihydrothieno[3,2-c]pyran-4,4′-piperidine]-1′-yl]tetrahydrofuran-3-ol] as the compound, how does the IC50 read?
A: The IC50 was 100 to 500 nM.

Q: For CCc1cc2c(s1)CCO[C@@]21CCN(CC2CN(C(=O)Cc3ccncc3)C2)[C@@H](C)C1 [Compound 438], which IC50 is on record?
A: The IC50 was under 100 nM.

Q: CC(O)c1c(C(F)(F)F)sc2c1CCO[C@@]21CCN(Cc2cnn(CCS(C)(=O)=O)c2)[C@@H](C)C1 (stereo partly drawn) [Compound 878] was tested. Which IC50 did it give?
A: The IC50 was under 100 nM.

Q: For C[C@H]1C[C@@]2(CCN1Cc1ccc(S(C)(=O)=O)cc1)OC[C@H](O)c1cc(Cl)sc12 [Compound 802], which IC50 is on record?
A: Its IC50 is 100 to 500 nM.

Q: For CCc1cc2c(s1)CCOC21CCN(Cc2ccc(C(=O)N(C)[C@H]3CC[C@H](O)CC3)nc2)CC1 [Compound 1065], which IC50 is on record?
A: The IC50 was 500 to 1000 nM.

Q: With CCc1cc2c(s1)CCO[C@@]21CCN(Cc2cnn(CCS(C)(=O)=O)c2)[C@H](C)C1 [Compound 272] as the compound, how does the IC50 read?
A: The IC50 was 100 to 500 nM.

Q: How did the IC50 turn out when C[C@H]1C[C@@]2(CCN1Cc1ccncc1F)OCCc1cc(Cl)sc12 [Compound 678] was run?
A: Its IC50 is 500 to 1000 nM.

Q: CNC(=O)c1cccc(CN2CC[C@]3(C[C@@H]2C)OCCc2cc(Cl)sc23)c1 [Compound 652] was tested. Which IC50 did it give?
A: Its IC50 is 100 to 500 nM.

Q: Which IC50 does the source give for CCc1cc2c(s1)CCOC21CCN(Cc2ccc(C(=O)NCc3ccn(C)n3)nc2)CC1 [Compound 1059] here?
A: Its IC50 is 100 to 500 nM.

Q: How did the IC50 turn out when C[C@H]1C[C@@]2(CCN1Cc1ccc3c(c1)n(C)c(=O)n3C)OCCc1cc(Cl)sc12 [Compound 664] was run?
A: Its IC50 is under 100 nM.

Q: For CCc1cc2c(s1)CCO[C@@]21CCN(CC2CN(C(=O)CC3CCS(=O)(=O)CC3)C2)[C@@H](C)C1 [Compound 444], which IC50 is on record?
A: Its IC50 is under 100 nM.

Q: Which IC50 does the source give for Clc1cc2c(s1)CCOC21CCN(Cc2cn[nH]c2)CC1 [Compound 1165, 2-chloro-1′-(1H-pyrazol-4-ylmethyl)spiro[6,7-dihydrothieno[3,2-c]pyran-4,4′-piperidine]] here?
A: Its IC50 is 100 to 500 nM.

Q: How did the IC50 turn out when CCc1cc2c(s1)CCO[C@@]21CCN(C[C@H]2C[C@@H](NC(=O)C(F)(F)F)C2)[C@@H](C)C1 [Compound 387, N-[3-[[(2′S,4R)-2-ethyl-2′-methyl-spiro[6,7-dihydrothieno[3,2-c]pyran-4,4′-piperidine]-1′-yl]methyl]cyclobutyl]-2,2,2-trifluoro-acetamide] was run?
A: The IC50 was 100 to 500 nM.
